In brackets after ≈: the same amount, converted by molar mass. Read-outs that look alike come from different tables or passages of the source.
How the values were obtained:
[1] = target: T1, AKT (phospho-Ser^473 AKT) in NIH3T3 cells (Mus musculus, UniProt P31750); test: Inhibition of phospho-Ser473 AKT in NIH3T3 cells; type: cell-based
T1 construct: endogenous in cells; host or cells: NIH3T3
Protocol: […]. […] AKT activity was measured by Western blotting using anti-phosphoSer437 AKT antibody. Downstream targets of AKT were detected also by Western blotting using specific anti-phospho antibodies and anti-actin was used as a loading control.

[2] = target: T2, AKT (phospho-Ser^473 AKT) in HT-29 colon cancer cells (Homo sapiens, UniProt P31749); test: Inhibition of phospho-Ser473 AKT in HT-29 colon cancer cells (Table 11); type: cell-based; details: human HT-29 colon cancer cells
T2 construct: endogenous in cells; host or cells: HT-29
Protocol: AKT activity was measured by Western blotting using anti-phosphoSer437 AKT antibody. Downstream targets of AKT were detected also by Western blotting using specific anti-phospho antibodies and anti-actin was used as a loading control.
AKT activity was measured by Western blotting using anti-phospho-[…] AKT antibody, PDK activity by anti-phospho-Ser241 PDK antibody as well as downstream target PKC using pan-phospho PKC antibodies. Anti-actin was used as a loading control.

[3] = Cytotoxicity in HT-29 cells; type: cell-based, human; details: human
[4] = Solubility (Table 11); type: physicochemical
[5] = Metabolic stability, incubation with HT-29 cells; type: in vitro ADME; details: human
From the text: Compound 6 was too insoluble to obtain data.

[6] = target: T3, AKT PH domain (Homo sapiens, UniProt P31749); details: purified AKT PH domain, SPR
[7] = system: BxPC-3 pancreatic cell lines; test: MTT cell survival, BxPC-3; type: cell-based; details: Homo sapiens; BxPC-3, MTT
[8] = target: AKT (phospho-Ser^473-AKT) in BxPC-3 (Homo sapiens, UniProt P31749); test: Western blot phospho-Ser473-AKT in BxPC-3 cells; details: BXPC-3, read-out: % pAKT Inhibition At 10 μM
[9] = system: MiaPaca-2 pancreatic cell line; test: MTT cell survival, MiaPaca-2; type: cell-based; details: Homo sapiens, MIA PaCa-2; MiaPaca-2, MTT
From the text: (§1) AKT inhibition leads to cellular apoptosis.

[10] = system: Panc-1 pancreatic cell line; test: MTT cell survival, Panc-1; type: cell-based; details: Homo sapiens; Panc-1, MTT
[11] = target: T3, AKT PH domain; test: SPR direct binding (Biacore 2000), KD; parameters: made in house; details: purified AKT PH domain
Protocol: (§2) Binding assays using SPR and an ELISA competitive binding assay were used to measure the binding affinity (KD) of the compounds to all three PH domains. SPR was carried out as described above. […] Purified GST-PH domains were incubated with increasing concentrations of the compounds under analysis for about 4 hours in 0.2 M carbonate buffer pH 9.4 and were added to the 96-well plate and incubated overnight at 4° C. Following incubation, the plate was washed 4 times with phosphate buffered 0.9% NaCl (PBS), blocked with 3% bovine serum albumin (BSA) in PBS and 0.01% Tween for 1 hour, washed again 4 times with PBS and mouse monoclonal anti-glutathione-S-transferase antibody in 3% BSA (1:2000) was added for 1 hr at room temperature with shaking. The plate was washed 4 times with PBS and an anti-mouse IgG horseradish peroxidase coupled antibody (dilution 1:2000 in 3% BSA) was added for 1 hr. After 4 washes with PBS, 2,2′-azinobis[3-ethylbenzothiazoline-6-sulfonic acid]-diammonium salt (ABST) was added and the reaction was allowed to develop for 30 min.

[12] = target: T4, IRS1 PH domain (Homo sapiens, UniProt P35568); test: SPR direct binding, KD, IRS1 PH domain; details: Table 10, SPR; for Kd: read-out: 1RS1 PH mKD
T4 sequence (P35568 12-115 limits assumed): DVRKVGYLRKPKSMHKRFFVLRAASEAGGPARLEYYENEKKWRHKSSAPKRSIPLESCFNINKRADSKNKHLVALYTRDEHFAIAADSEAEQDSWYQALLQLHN
Protocol: as §2

[13] = target: T5, PH domain of PDK1 (Homo sapiens, UniProt O15530); test: SPR direct binding, KD, PDK1 PH domain; details: Table 10, SPR; read-out: PDK1 PH mKD
T5 sequence (O15530 459-550 limits assumed): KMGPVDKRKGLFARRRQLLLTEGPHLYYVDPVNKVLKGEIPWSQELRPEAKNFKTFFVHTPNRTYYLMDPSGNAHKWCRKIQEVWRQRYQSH
Protocol: as §2

[14] = system: HT-29 cells; test: Cytotoxicity in HT-29 cells; type: cell-based, human
[15] = system: HT-29 lung cancer cells; test: MTT cell survival in HT-29 cells (Table 2); type: cell-based; details: Homo sapiens
[16] = type: in vivo
[17] = target: AKT (phospho-Ser-AKT) in HT-29 xenograft tumors (Homo sapiens, UniProt P31749); test: Tumor phospho-Ser-AKT in HT-29 xenografts; type: in vivo, mouse; details: 4 hours after a single 250 mg/kg dose
[18] = Pharmacokinetics of compound 316 in scid mice; type: in vivo, mouse
[19] = system: Panc-1 pancreatic cell line; test: Apoptosis, morphological assay, Panc-1; type: cell-based, human; details: Panc-1, 20 μmol/L
From the text: as §1

[20] = system: MiaPaca-2 pancreatic cell line; test: Apoptosis, morphological assay, MiaPaca-2; type: cell-based, human; details: MiaPaca-2, 20 μmol/L
From the text: as §1

[21] = target: T6, AKT (phospho-Ser^473-AKT) in HT-29 lung cancer cells (Homo sapiens, UniProt P31749); test: Western blot phospho-Ser473-AKT in HT-29 cells (Table 2); type: cell-based; details: read-out: AKT inhibition (IC50)
T6 construct: endogenous in cells; host or cells: HT-29
From the text: as §1

[22] = system: pancreatic cancer cells; test: Cell viability assay (Table 3); details: viability assay; cell line not given
[23] = pH solubility profile / pKa; type: physicochemical; details: aqueous buffer solutions, from pH-solubility profile
Protocol: These samples were then rotated at room temperature for 24 hours. After rotation, if there was no evidence of precipitated compound, additional compound 104 was added and the dissolution processes were repeated. […] HPLC Assay. […] The run time was 5 minutes and the injection volume was 2 μL.

[24] = system: SKOV-3 ovarian cancer; test: Antitumor activity, oral gavage, SKOV-3 xenograft; type: in vivo, mouse; details: SKOV-3, 250 mg/kg BID × 10 D oral
[25] = HT-29 cell culture conditions, read-out: half lives under cell culture conditions
[26] = incubating with HT-29 cells at maximum DMEM concentration at 37° C., read-out: Metabolic half life

T1 sequence (P31750 whole entry): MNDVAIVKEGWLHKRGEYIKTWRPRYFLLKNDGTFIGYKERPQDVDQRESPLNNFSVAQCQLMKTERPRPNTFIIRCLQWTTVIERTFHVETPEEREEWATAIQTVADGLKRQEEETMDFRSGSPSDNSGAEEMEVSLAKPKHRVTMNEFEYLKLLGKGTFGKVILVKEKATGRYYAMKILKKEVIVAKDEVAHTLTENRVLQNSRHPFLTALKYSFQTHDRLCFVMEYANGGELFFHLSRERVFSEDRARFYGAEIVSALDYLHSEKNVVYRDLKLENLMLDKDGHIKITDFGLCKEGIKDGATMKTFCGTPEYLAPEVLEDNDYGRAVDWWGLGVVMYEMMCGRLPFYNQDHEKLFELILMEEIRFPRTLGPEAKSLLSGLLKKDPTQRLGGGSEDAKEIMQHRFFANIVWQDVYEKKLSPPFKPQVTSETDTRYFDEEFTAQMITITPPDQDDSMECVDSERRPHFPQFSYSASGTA
T2 sequence (P31749 whole entry): as the sequence (P31750 whole entry) above, with N2S, S50A, A100T, R112K, T117E, T389K, N410G, D415H counted along it
AKT (phospho-Ser^473-AKT) in BxPC-3, sequence (P31749 whole entry): as the sequence (P31750 whole entry) above, with N2S, S50A, A100T, R112K, T117E, T389K, N410G, D415H counted along it
T3 sequence (P31749 5-108 limits assumed): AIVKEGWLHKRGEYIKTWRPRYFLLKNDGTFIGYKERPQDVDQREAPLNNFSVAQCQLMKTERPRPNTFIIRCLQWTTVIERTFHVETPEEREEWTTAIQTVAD
T6 sequence (P31749 whole entry): as the sequence (P31750 whole entry) above, with N2S, S50A, A100T, R112K, T117E, T389K, N410G, D415H counted along it
AKT (phospho-Ser-AKT) in HT-29 xenograft tumors, sequence (P31749 whole entry): as the sequence (P31750 whole entry) above, with N2S, S50A, A100T, R112K, T117E, T389K, N410G, D415H counted along it

Work on `CC1=NN(C(=O)c2ccc(C(C)(C)C)cc2)C(=O)C1/N=N/c1ccc(S(=O)(=O)Nc2ncccn2)cc1` (stereo not drawn) [Compound 332] yielded an IC50 [1] of over 20 µM, an IC50 [2] of over 20 µM and an IC50 [3] of 25 µM. The solubility [4] was 28.6 µM (≈ 14.9 µg/mL), the half-life [5, 25] was 1 to 2 h and the half-life [5, 26] was 1.52 h.
Work on `CCCCCCCC(=O)OC[C@H](COP(=O)(O)O[C@H]1[C@H](O)[C@@H](OP(=O)(O)O)[C@H](OP(=O)(O)O)[C@@H](OP(=O)(O)O)[C@H]1O)OC(=O)CCCCCCC` [diC8-PtdIns(3,4,5)P3] yielded a Ki [6] of about 0.3 µM.
`CCCCCCCCCCCCc1ccc(S(=O)(=O)Nc2nnc(C(C)(C)C)s2)cc1` [Compound 116, N-(5-tert-Butyl-1,3,4-thiadiazol-2-yl)-4-dodecylbenzenesulfonamide] gave an IC50 [7] of 45 µM and an inhibition at 10 µM [8] of 36%.
With `CC(=O)Nc1ccc(S(=O)(=O)Nc2nncs2)cc1` [Compound 102, N-(4-(N-1,3,4-Thiadiazol-2-ylsulfamoyl)phenyl)acetamide] the IC50 [9] was over 100 µM, the IC50 [10] was over 100 µM and the KD [11] was “did not appear to bind”.
In the case of `CCCCCCCCCCCCc1ccc(S(=O)(=O)Nc2nnc(C)s2)cc1` [Compound 108, 4-Dodecyl-N-(5-methyl-1,3,4-thiadiazol-2-yl)benzenesulfonamide], the IC50 [7] is reported as 61 µM and the inhibition at 10 µM [8] is reported as 64%.
With `CC1=NN(C(=O)c2ccc(O)cc2)C(=O)C1/N=N/c1ccc(S(=O)(=O)Nc2ncccn2)cc1` (stereo not drawn) [Compound 360] the IC50 [1] was 5 µM, the “1RS1 PH mKD” value [12] was “low KD” and the Kd [12] was 1.74 ± 0.41 µM. The Kd [13] was 0.42 µM, the IC50 [2] was over 20 µM and the “Cytotoxicity (IC50 μM)” value [14] was “no cytotoxicity”. For the same molecule, the IC50 [3] was over 100 µM, the solubility [4] was 13.1 µM (≈ 6.28 µg/mL) and the half-life [5, 25] was 1 to 2 h. For the same molecule, the half-life [5, 26] was 2.3 h.
Molecule `CC1=NN(C(=O)c2ccccc2)C(=O)C1/N=N/c1ccc(S(=O)(=O)Nc2ncccn2)cc1` (stereo not drawn) [Compound 331] has an IC50 [1] of 11 µM, an IC50 [3] of 14 µM and a solubility [4] of 28.3 µM (≈ 13.1 µg/mL). For the same molecule, the half-life [5, 25] was 1 to 2 h and the half-life [5, 26] was 1.03 h.
`NS(=O)(=O)c1nnc(NS(=O)(=O)c2cccc3cccnc23)s1` [Compound 345] gave an IC50 [15] of over 100 µM.
For `CC1=NN(C(=O)c2ccc(N)cc2)C(=O)C1/N=N/c1ccc(S(=O)(=O)Nc2ncccn2)cc1` (stereo not drawn) [Compound 333], the “1RS1 PH mKD” value [12] was “low KD”, the Kd [12] was 0.14 ± 0.02 µM and the IC50 [2] was over 20 µM. The “Cytotoxicity (IC50 μM)” value [14] was “no cytotoxicity”, the IC50 [3] was over 100 µM and the solubility [4] was 12.9 µM (≈ 6.17 µg/mL). For the same molecule, the half-life [5, 26] was over 8 h.
For `CC1=NN(C(=O)c2ccc(Cl)cc2)C(=O)C1/N=N/c1ccc(S(=O)(=O)Nc2ncccn2)cc1` (stereo not drawn) [Compound 316, (E)-4-((1-(4-chlorobenzoyl)-3-methyl-5-oxo-4,5-dihydro-1H-pyrazol-4-yl)diazenyl)-N-(pyrimidin-2-yl)benzenesulfonamide], the IC50 [1] was 4 µM, the “toxicity of repeated doses” value ([16]; five daily doses of 250 mg/kg i.p.) was “moderate neutropenia” and the “toxicity of a single dose” value ([16]; single dose of up to 250 mg/kg i.p.) was “no toxicity”. For the same molecule, the “tumor phospho-Ser-AKT” value [17] was “inhibition of tumor phospho-Ser-AKT was observed”, the peak plasma concentration ([18]; single dose 250 mg/kg i.p.) was 1.4 nM and the peak plasma concentration ([18]; single dose 250 mg/kg oral) was 600 nM. For the same molecule, the solubility [4] was 17.9 µM (≈ 8.91 µg/mL), the half-life [5, 25] was 1 to 2 h and the half-life [5, 26] was 1.03 h.
In the case of `COc1cc(NS(=O)(=O)c2ccc(NS(=O)(=O)c3c(C)noc3C)cc2)nc(OC)n1` [Compound 415], the IC50 [15] is reported as 3.1 µM.
For `CCCCCCCCCC(=O)Nc1ccc(S(=O)(=O)Nc2nncs2)cc1` [Compound 101, N-(4-(N-1,3,4-Thiadiazol-2-ylsulfamoyl)phenyl)decanamide], the IC50 [9] was 90 µM, the IC50 [10] was 127 µM and the “Apoptosis at 20 μmol/L” value [19] was 28.7 ± 0.3/ %. For the same molecule, the “Apoptosis at 20 μmol/L” value [20] was 20.0 ± 1.5%.
In the case of `O=C(O)c1ccccc1C(=O)Nc1ccccc1SCCS(=O)(=O)c1ccc(Cl)cc1` [Compound 389], the IC50 [15] is reported as over 100 µM and the IC50 [21] is reported as 5 µM.
In the case of `Nc1ccc(S(=O)(=O)Nc2nncs2)cc1` [Compound 100, 4-Amino-N-(1,3,4-thiadiazol-2-yl)benzenesulfonamide], the IC50 [9] is reported as over 100 µM, the IC50 [10] is reported as over 100 µM and the “Apoptosis at 20 μmol/L” value [19] is reported as 24.3 ± 3.2/ %. For the same molecule, the “Cell viability (IC50)” value [22] was “N/I” and the “Apoptosis at 20 μmol/L” value [20] was 25.7 ± 2.6%.
For `CCCCCCCCCCCCc1ccc(S(=O)(=O)Nc2nnc(CC(=O)O)s2)cc1` [Compound 120, 2-(5-(4-Dodecylphenylsulfonamido)-1,3,4-thiadiazol-2-yl)acetic Acid], the IC50 [7] was over 100 µM.
For `COCCOCCOCC(=O)Nc1ccc(S(=O)(=O)Nc2nncs2)cc1` [Compound 103], the IC50 [9] was over 100 µM, the IC50 [10] was over 100 µM and the “Apoptosis at 20 μmol/L” value [19] was 11.4 ± 0.5/ %. The “Apoptosis at 20 μmol/L” value [20] was 18.7 ± 3.1%.
In the case of `CCCCCCCCCCCCc1ccc(S(=O)(=O)Nc2nncs2)cc1` [Compound 104, 4-Dodecyl-N-(1,3,4-thiadiazol-2-yl)benzenesulfonamide], the pKa ([23]; read-out: acidic pKa) is reported as 7.9 to 8.3, the pKa ([23]; read-out: additional pKa) is reported as over 9 and the “Apoptosis at 20 μmol/L” value [20] is reported as 31.3 ± 1.6%. For the same molecule, the Growth rate [24] was 122 ± 16 mm^3/10 days and the T/C [24] was 28.3%.
In the case of `CCCCCCCCCCCCc1ccc(S(=O)(=O)Nc2nnc(CC)s2)cc1` [Compound 112, 4-Dodecyl-N-(5-ethyl-1,3,4-thiadiazol-2-yl)benzenesulfonamide], the IC50 [7] is reported as 32 µM.

Reference: patent publication US20120189670A1, “PHARMACEUTICAL COMPOSITIONS AND FORMULATIONS INCLUDING INHIBITORS OF THE PLECKSTRIN HOMOLOGY DOMAIN AND METHODS FOR USING SAME” (priority 2009, published 2012)
